Test results: ChEMBL document CHEMBL5143606, “Selective Wee1 degradation by PROTAC degraders recruiting VHL and CRBN E3 ubiquitin ligases” (Bioorg Med Chem Lett, 2022)
Each block holds one compound with its values, some of them ahead of it. The source made the active and inactive calls. The calls are words filed in the database; no cut-off is given here.

Columns and labels:
[1] = molecular target: T1, Protein cereblon/Wee1-like protein kinase (Homo sapiens) (UniProt P30291+Q96SW2); assay: PROTAC activity at CRBN/Wee1 in human BT-549 cells assessed as induction of Wee1 degradation by measuring reduction in CDK1 phosphorylation at Tyr15 residue at 300 nM and above concentrations measured after 4 hrs by Western blot analysis; type: cell-based; settings: MCF7
[2] = molecular target: T1, Protein cereblon/Wee1-like protein kinase (Homo sapiens); assay: PROTAC activity at CRBN/Wee1 in human MCF7 cells assessed as induction of Wee1 degradation at 300 nM and above concentrations measured after 4 hrs by Western blot analysis; type: cell-based
[3] = molecular target: T1, Protein cereblon/Wee1-like protein kinase (Homo sapiens); assay: PROTAC activity at CRBN/Wee1 in human LNCaP cells assessed as induction of Wee1 degradation by measuring reduction in CDK1 phosphorylation at Tyr15 residue at 300 nM and above concentrations measured after 4 hrs by Western blot analysis; type: cell-based
[4] = molecular target: T1, Protein cereblon/Wee1-like protein kinase (Homo sapiens); assay: PROTAC activity at CRBN/Wee1 in human HeLa S3 cells assessed as induction of Wee1 degradation at 1 uM measured after 4 hrs by Western blot analysis; type: cell-based
BT-549 = assay: Antiproliferative activity against human BT-549 cells assessed as inhibition of cell growth measured after 72 hrs by MTS assay; type: functional, cell-based; settings: BT-549, 72 h
[5] = molecular target: T1, Protein cereblon/Wee1-like protein kinase (Homo sapiens); assay: PROTAC activity at CRBN/Wee1 in human HeLa S3 cells assessed as induction of Wee1 degradation at 1 uM pretreated with pomalidomide for 2 hrs followed by incubation with compound for 5 hrs by Western blot analysis; type: cell-based
[6] = molecular target: T1, Protein cereblon/Wee1-like protein kinase (Homo sapiens); assay: PROTAC activity at CRBN/Wee1 in human LNCaP cells assessed as induction of Wee1 degradation at 300 nM and above concentrations measured after 4 hrs by Western blot analysis; type: cell-based
[7] = molecular target: T1, Protein cereblon/Wee1-like protein kinase (Homo sapiens); assay: PROTAC activity at CRBN/Wee1 in human HeLa S3 cells assessed as induction of Wee1 degradation by measuring reduction in phosphorylation of CDK1 at Tyr15 residue at 1 uM pretreated with AZD1775 for 2 hrs followed by incubation with compound for 5 hrs by Western blot analysis; type: cell-based
MCF7 = assay: Antiproliferative activity against human MCF7 cells assessed as inhibition of cell growth measured after 72 hrs by MTS assay; type: functional, cell-based; settings: MCF7, 72 h
[8] = molecular target: T1, Protein cereblon/Wee1-like protein kinase (Homo sapiens); assay: PROTAC activity at CRBN/Wee1 in human BT-549 cells assessed as induction of Wee1 degradation at 100 nM and above concentrations measured after 4 hrs by Western blot analysis; type: cell-based
LNCaP = assay: Antiproliferative activity against human LNCaP cells assessed as inhibition of cell growth measured after 72 hrs by MTS assay; type: functional, cell-based
[9] = molecular target: T1, Protein cereblon/Wee1-like protein kinase (Homo sapiens); assay: PROTAC activity at CRBN/Wee1 in human HeLa S3 cells assessed as induction of Wee1 degradation at 30 to 10000 nM measured after 4 hrs by Western blot analysis; type: cell-based; settings: dose 30-10000 nM
[10] = molecular target: T1, Protein cereblon/Wee1-like protein kinase (Homo sapiens); assay: PROTAC activity at CRBN/Wee1 in human PC-3 cells assessed as induction of Wee1 degradation at 100 nM and above concentrations measured after 4 hrs by Western blot analysis; type: cell-based
[11] = molecular target: T1, Protein cereblon/Wee1-like protein kinase (Homo sapiens); assay: PROTAC activity at CRBN/Wee1 in human BT-549 cells assessed as induction of Wee1 degradation by measuring reduction in CDK1 phosphorylation at Tyr15 residue at 100 nM and above concentrations measured after 4 hrs by Western blot analysis; type: cell-based
[12] = molecular target: T1, Protein cereblon/Wee1-like protein kinase (Homo sapiens); assay: PROTAC activity at CRBN/Wee1 in human HeLa S3 cells assessed as induction of Wee1 degradation by measuring reduction in phosphorylation of CDK1 at Tyr15 residue at 1 uM measured after 24 hrs by Western blot analysis relative to control; type: cell-based; design: scale not given: the % may be the effect or the level left
PC-3 = assay: Antiproliferative activity against human PC-3 cells assessed as inhibition of cell growth measured after 72 hrs by MTS assay; type: functional, cell-based; settings: PC-3, 72 h
[13] = molecular target: T1, Protein cereblon/Wee1-like protein kinase (Homo sapiens); assay: PROTAC activity at CRBN/Wee1 in human HeLa S3 cells assessed as induction of Wee1 degradation at 1 uM measured after 24 hrs by Western blot analysis relative to control; type: cell-based
[14] = molecular target: T1, Protein cereblon/Wee1-like protein kinase (Homo sapiens); assay: PROTAC activity at CRBN/Wee1 in human PC-3 cells assessed as induction of Wee1 degradation by measuring reduction in CDK1 phosphorylation at Tyr15 residue at 100 nM and above concentrations measured after 4 hrs by Western blot analysis; type: cell-based
[15] = molecular target: T1, Protein cereblon/Wee1-like protein kinase (Homo sapiens); assay: PROTAC activity at CRBN/Wee1 in human HeLa S3 cells assessed as induction of Wee1 degradation by measuring reduction in phosphorylation of CDK1 at Tyr15 residue at 100 to 10000 nM measured after 4 hrs by Western blot analysis; type: cell-based; settings: dose 100-10000 nM
[16] = molecular target: T2, von Hippel-Lindau disease tumor suppressor/Wee1-like protein kinase (Homo sapiens) (UniProt P30291+P40337); assay: PROTAC activity at VHL/Wee1 in human HeLa S3 cells assessed as induction of Wee1 degradation at 30 to 3000 nM measured after 4 hrs by Western blot analysis; type: cell-based; settings: dose 30-3000 nM
[17] = molecular target: T2, von Hippel-Lindau disease tumor suppressor/Wee1-like protein kinase (Homo sapiens); assay: PROTAC activity at VHL/Wee1 in human LNCaP cells assessed as induction of Wee1 degradation by measuring reduction in CDK1 phosphorylation at Tyr15 residue at 300 nM and above concentrations measured after 4 hrs by Western blot analysis; type: cell-based
[18] = molecular target: T2, von Hippel-Lindau disease tumor suppressor/Wee1-like protein kinase (Homo sapiens); assay: PROTAC activity at VHL/Wee1 in human PC-3 cells assessed as induction of Wee1 degradation at 100 nM and above concentrations measured after 4 hrs by Western blot analysis; type: cell-based
[19] = molecular target: T2, von Hippel-Lindau disease tumor suppressor/Wee1-like protein kinase (Homo sapiens); assay: PROTAC activity at VHL/Wee1 in human PC-3 cells assessed as induction of Wee1 degradation by measuring reduction in CDK1 phosphorylation at Tyr15 residue at 100 nM and above concentrations measured after 4 hrs by Western blot analysis; type: cell-based
[20] = molecular target: T2, von Hippel-Lindau disease tumor suppressor/Wee1-like protein kinase (Homo sapiens); assay: PROTAC activity at VHL/Wee1 in human HeLa S3 cells assessed as induction of Wee1 degradation at 1 uM measured after 24 hrs by Western blot analysis relative to control; type: cell-based
[21] = molecular target: T2, von Hippel-Lindau disease tumor suppressor/Wee1-like protein kinase (Homo sapiens); assay: PROTAC activity at VHL/Wee1 in human HeLa S3 cells assessed as induction of Wee1 degradation at 1 uM measured after 4 hrs by Western blot analysis; type: cell-based
[22] = molecular target: T2, von Hippel-Lindau disease tumor suppressor/Wee1-like protein kinase (Homo sapiens); assay: PROTAC activity at VHL/Wee1 in human MCF7 cells assessed as induction of Wee1 degradation at 300 nM and above concentrations measured after 4 hrs by Western blot analysis; type: cell-based
[23] = molecular target: T2, von Hippel-Lindau disease tumor suppressor/Wee1-like protein kinase (Homo sapiens); assay: PROTAC activity at VHL/Wee1 in human HeLa S3 cells assessed as induction of Wee1 degradation by measuring reduction in phosphorylation of CDK1 at Tyr15 residue at higher concentration measured after 4 hrs by Western blot analysis; type: cell-based
[24] = molecular target: T2, von Hippel-Lindau disease tumor suppressor/Wee1-like protein kinase (Homo sapiens); assay: PROTAC activity at VHL/Wee1 in human HeLa S3 cells assessed as induction of Wee1 degradation by measuring reduction in phosphorylation of CDK1 at Tyr15 residue at 1 uM pretreated with AZD1775 for 2 hrs followed by incubation with compound for 5 hrs by Western blot analysis; type: cell-based
[25] = molecular target: T2, von Hippel-Lindau disease tumor suppressor/Wee1-like protein kinase (Homo sapiens); assay: PROTAC activity at VHL/Wee1 in human HeLa S3 cells assessed as induction of Wee1 degradation at 1 uM measured after 24 to 48 hrs by Western blot analysis; type: cell-based; settings: time 24-48 hrs
[26] = molecular target: T2, von Hippel-Lindau disease tumor suppressor/Wee1-like protein kinase (Homo sapiens); assay: PROTAC activity at VHL/Wee1 in human HeLa S3 cells assessed as induction of Wee1 degradation at 1 uM pretreated with VH298 for 2 hrs followed by incubation with compound for 5 hrs by Western blot analysis; type: cell-based
[27] = molecular target: T2, von Hippel-Lindau disease tumor suppressor/Wee1-like protein kinase (Homo sapiens); assay: PROTAC activity at VHL/Wee1 in human LNCaP cells assessed as induction of Wee1 degradation at 300 nM and above concentrations measured after 4 hrs by Western blot analysis; type: cell-based
[28] = molecular target: T2, von Hippel-Lindau disease tumor suppressor/Wee1-like protein kinase (Homo sapiens); assay: PROTAC activity at VHL/Wee1 in human BT-549 cells assessed as induction of Wee1 degradation at 100 nM and above concentrations measured after 4 hrs by Western blot analysis; type: cell-based
[29] = molecular target: T2, von Hippel-Lindau disease tumor suppressor/Wee1-like protein kinase (Homo sapiens); assay: PROTAC activity at VHL/Wee1 in human BT-549 cells assessed as induction of Wee1 degradation by measuring reduction in CDK1 phosphorylation at Tyr15 residue at 100 nM and above concentrations measured after 4 hrs by Western blot analysis; type: cell-based
[30] = molecular target: T2, von Hippel-Lindau disease tumor suppressor/Wee1-like protein kinase (Homo sapiens); assay: PROTAC activity at VHL/Wee1 in human BT-549 cells assessed as induction of Wee1 degradation by measuring reduction in CDK1 phosphorylation at Tyr15 residue at 300 nM and above concentrations measured after 4 hrs by Western blot analysis; type: cell-based; settings: MCF7
[31] = molecular target: T2, von Hippel-Lindau disease tumor suppressor/Wee1-like protein kinase (Homo sapiens); assay: PROTAC activity at VHL/Wee1 in human HeLa S3 cells assessed as induction of Wee1 degradation by measuring reduction in phosphorylation of CDK1 at Tyr15 residue at 30 to 10000 nM measured after 4 hrs by Western blot analysis; type: cell-based; settings: dose 30-10000 nM
[32] = molecular target: T2, von Hippel-Lindau disease tumor suppressor/Wee1-like protein kinase (Homo sapiens); assay: PROTAC activity at VHL/Wee1 in human HeLa S3 cells assessed as induction of Wee1 degradation by measuring reduction in phosphorylation of CDK1 at Tyr15 residue at 1 uM measured after 24 hrs by Western blot analysis relative to control; type: cell-based; design: scale not given: the % may be the effect or the level left

Activity [1]: Active | Activity [2]: Active | Activity [3]: Active | Activity [4]: Active | IC50 (BT-549): 7.9 µM | Activity [5]: Active | Activity [6]: Active | Activity [7]: Active | IC50 (MCF7): 14 µM | Activity [8]: Active | IC50 (LNCaP): 16.6 µM | Activity [9]: Active | Activity [10]: Active | Activity [11]: Active | Activity [12]: 51% | IC50 (PC-3): > 20 µM | Activity [13]: 27% | Activity [14]: Active | Activity [15]: Active
Structure (SMILES): C=CCn1c(=O)c2cnc(Nc3ccc(N4CCN(CCCC(=O)NCCOCCOCCNc5cccc6c5C(=O)N(C5CCC(=O)NC5=O)C6=O)CC4)cc3)nc2n1-c1cccc(C(C)(C)O)n1 (stereo not given)

Activity [16]: Active | Activity [17]: Active | Activity [18]: Active | Activity [19]: Active | IC50 (BT-549): 2.4 µM | Activity [20]: 34% | Activity [21]: Active | IC50 (MCF7): 7 µM | Activity [22]: Active | Activity [23]: Active | IC50 (LNCaP): 5.2 µM | Activity [24]: Active | Activity [25]: Active | Activity [26]: Active | Activity [27]: Active | Activity [28]: Active | Activity [29]: Active | IC50 (PC-3): > 20 µM | Activity [30]: Active | Activity [31]: Active | Activity [32]: 49%
Structure (SMILES): C=CCn1c(=O)c2cnc(Nc3ccc(N4CCN(CCCC(=O)N[C@H](C(=O)N5C[C@H](O)C[C@H]5C(=O)NCc5ccc(-c6scnc6C)cc5)C(C)(C)C)CC4)cc3)nc2n1-c1cccc(C(C)(C)O)n1
